From PMC9739180, “Discovery of a Flavonoid FM04 as a Potent Inhibitor to Reverse P-Glycoprotein-Mediated Drug Resistance in Xenografts and Improve Oral Bioavailability of Paclitaxel” (International Journal of Molecular Sciences, 2022)
Where two headings read alike, the source gives them in different places. One block for each compound: values may come before it.

Legend:
P-gp [1] = target: T1, P-gp (Homo sapiens, UniProt P08183); experiment: Reversal of P-gp-mediated MDR in LCC6MDR cells (MTS cell viability, 5 days)
Protocol: To each well of a 96-well plate, 6500 cells of LCC6MDR were seeded in 180 μL supplemented medium. A 10 µL compound (FD18, 14a, FM04 or FM327) at different concentrations (0, 62.5, 125, 250, 500 and 1000 nM) was added to the well. […] The final volume in each well was 200 µL and the 96-well plate was incubated at 37 °C for 5 days. The cell viability was determined using the MTS assay as reported previously. The % of cell survival, IC50 of anticancer drugs towards the LCC6MDR and the EC50 of modulators were analyzed using nonlinear regression in Prism 5.0 (Prism version 5.0, GraphPad software, San Diego, CA, USA).

[2] = In vivo monitoring of FD18 and its metabolites in plasma after I.V. FD18; parameters: species or system SD rats; conditions: after FD18 5 mg/kg I.V.; for AUC(0-t) / Cmax / Tmax: Sprague-Dawley, rat, iv
Protocol: Figure 3 Proposed metabolism pathway of FD18 and its metabolites formed in vivo. (A) metabolism study of FD18 was conducted on human liver microsomes (HLM) and rat liver microsomes (RLM) in vitro. Chemical structure of the 3 metabolites was predicted by LC/QTOF-MS/MS and confirmed by the synthetic compounds (Figure 2E–J). The pathways for biotransformation of FD18 into FM04 was proposed. (B) plasma concentration profile of FD18 and the in vivo formation of metabolites M1, M2 and M3. After I.V. injection of FD18 (5 mg/kg) into […], plasma was collected at 10, 30, 60, 120, 240, 420 and 600 min, respectively. The concentration of FD18 at each time point was determined by UPLC-MS/MS. Its plasma concentration was further quantified with peak area ratio of FD18 against D7-18. […] In vivo formation of metabolites M1, M2 and M3 were monitored and quantified by UPLC-MS/MS with corresponding calibration curve of 14a, FM04 and FM327. Pharmacokinetic parameter AUC was calculated by the pharmacokinetic software-Summit® PK solutions 2.0 (Summit Research Service, Ashland, Wilmington, DE, USA).
FD18 stock solution was freshly prepared in 33% Cremophor EL, 33% ethanol and 33% saline at a concentration of 9.5 mg/mL. FD18 stock solution was then diluted with saline to form a 4 mg/mL working solution for animal injection. SD rats were intravenously (I.V.) administered with FD18 at 5 mg/kg (n = 3). Blood samples (approx. 300 μL) were taken via jugular vein at 10, 30, 60, 120, 240 and 420 min post-administration. Blood samples were centrifuged at 16,100× g for 10 min to obtain plasma. Plasma samples (50 µL) were spiked with 15 μL of internal standard (IS) (D7-NBn, 10 μg/mL). Two hundred microliter of methanol was added for protein precipitation. Samples were centrifuged at 16,100× g for 10 min prior to filtering by 0.22 μm syringe filter for UPLC-MSMS analysis.
The UPLC-MS/MS system consists of an Agilent 1260 infinity UPLC interfaced with a triple quadrupole mass spectrometer (Agilent 6460) equipped with an electrospray ionization source in positive mode. Zorbax Eclipse XDB-C8 (4.6 × 150 mm, 5 µM) was used for separation. The mobile phase for chromatographic separation consisted of methanol + 0.1% formic acid (solvent B) and Milli-Q water + 0.1% formic acid (solvent A) with gradient elution of 30% solvent B to 100% solvent B in 5 min. The elution condition was allowed for equilibrium from the 7th min onward. The analysis time for each injection was 13 min. The flow rate was 0.4 mL/min. The synthetic compound D7-NBn, the deuterated benzyl form of FD18, was used as the internal standard (IS) for the quantification of the three metabolites. Multiple reaction monitoring (MRM) was set to monitor the transitions of D7-NBn [M+H]^+, FD18 [M+H]^+, M1 [M+H]^+, M2 [M+H]^+ and M3 [M+H]^+ at 731.01 > 98.1 m/z, 724.01 > 91.1 m/z, 634.01 > 114 m/z, 416.01 > 91.1 m/z and 327.01 > 239 m/z, respectively. The coefficient of determination (R^2) for 14a, FM04 and FM327 were above 0.99. The dynamic range for the metabolites in the current setting is 78 ng/mL to 2.44 ng/mL.

MRP1 = target: T2, MRP1 (Homo sapiens, UniProt P33527); experiment: MRP1-modulating activity in 2008/MRP1 cells (MTS); assay type: cell-based; conditions: no modulator; read-out: IC50 of DOX in 2008/MRP1, DMSO
T2 construct: expressed in transfected cells; host or cells: 2008/MRP1 (human ovarian cancer)
Protocol: (§1) The final volume in each well of the 96-well plate was 200 μL. The plate was then incubated for 5 days at 37 °C. The cell viability was determined using an MTS assay as reported previously.

LCC6 cells = experiment: IC50 of anticancer drugs in wild-type LCC6 with or without FM04; assay type: cell-based, human; conditions: for IC50: Homo sapiens; for RF, LCC6 + DMSO: IC50 in LCC6MDR without FM04 / IC50 in LCC6; for RF, LCC6 + 1 μM FM04: IC50 in LCC6MDR without FM04 / IC50 in LCC6 with FM04
Description: Table S1. IC50 of anticancer drugs in LCC6 and LCC6MDR and P-gp modulating activity of FM04.
fold): IC50 of an anticancer drug of LCC6MDR without FM04/IC50 of an anticancer of LCC6 with or without
FM04 or LCC6MDR with FM04. N = 2 - 8 independent experiment. The IC50 values were presented as mean ±
standard error mean. /: not determined.

L929 = tested on: L929; parameters: method as in earlier work; conditions: mouse fibroblast cell line; read-out: Cytotoxicity IC50, L929; cited from earlier work
P-gp [3] = target: T1, P-gp; experiment: Intracellular DOX accumulation assay in LCC6MDR cells
P-gp [4] = target: T1, P-gp; parameters: expressed in transfected cells; host or cells: MDA435/LCC6MDR (human melanoma); method as in PMID 22320402; conditions: LCC6MDR; cited from earlier work
BCRP = target: T3, BCRP (Homo sapiens, UniProt Q9UNQ0); experiment: BCRP-modulating activity in HEK293/R2 cells (MTS); assay type: cell-based; conditions: no modulator; read-out: IC50 of Topotecan in HEK293/R2, DMSO
T3 construct: expressed in transfected cells; host or cells: HEK293/R2
T3 sequence (Q9UNQ0 1-655): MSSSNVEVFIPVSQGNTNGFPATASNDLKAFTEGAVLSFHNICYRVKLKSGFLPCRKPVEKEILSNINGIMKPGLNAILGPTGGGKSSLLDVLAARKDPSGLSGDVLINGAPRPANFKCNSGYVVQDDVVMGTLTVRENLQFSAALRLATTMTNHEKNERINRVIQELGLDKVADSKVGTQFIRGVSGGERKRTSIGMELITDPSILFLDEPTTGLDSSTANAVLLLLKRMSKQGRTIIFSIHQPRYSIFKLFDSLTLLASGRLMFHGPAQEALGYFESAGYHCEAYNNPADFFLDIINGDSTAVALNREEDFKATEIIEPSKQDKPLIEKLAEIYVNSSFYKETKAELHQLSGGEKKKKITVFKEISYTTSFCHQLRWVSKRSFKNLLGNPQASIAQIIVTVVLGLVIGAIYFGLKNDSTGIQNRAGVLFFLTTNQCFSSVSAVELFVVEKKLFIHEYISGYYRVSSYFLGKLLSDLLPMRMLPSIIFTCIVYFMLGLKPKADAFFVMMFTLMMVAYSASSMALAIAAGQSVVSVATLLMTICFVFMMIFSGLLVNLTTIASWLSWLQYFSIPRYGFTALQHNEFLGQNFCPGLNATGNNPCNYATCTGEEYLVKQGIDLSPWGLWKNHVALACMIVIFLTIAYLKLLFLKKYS
Protocol: as §1

P-gp [5] = target: T1, P-gp; parameters: expressed in transfected cells; host or cells: MDA435/LCC6MDR (human melanoma); conditions: read-out: EC50 for reversing PTX resistance; cited from earlier work
[6] = oral co-administration; cited from earlier work
[7] = LCC-6, wild-type LCC6, no modulator, read-out: IC50 of anticancer drug, LCC6 + DMSO

T1 sequence (P08183 whole entry): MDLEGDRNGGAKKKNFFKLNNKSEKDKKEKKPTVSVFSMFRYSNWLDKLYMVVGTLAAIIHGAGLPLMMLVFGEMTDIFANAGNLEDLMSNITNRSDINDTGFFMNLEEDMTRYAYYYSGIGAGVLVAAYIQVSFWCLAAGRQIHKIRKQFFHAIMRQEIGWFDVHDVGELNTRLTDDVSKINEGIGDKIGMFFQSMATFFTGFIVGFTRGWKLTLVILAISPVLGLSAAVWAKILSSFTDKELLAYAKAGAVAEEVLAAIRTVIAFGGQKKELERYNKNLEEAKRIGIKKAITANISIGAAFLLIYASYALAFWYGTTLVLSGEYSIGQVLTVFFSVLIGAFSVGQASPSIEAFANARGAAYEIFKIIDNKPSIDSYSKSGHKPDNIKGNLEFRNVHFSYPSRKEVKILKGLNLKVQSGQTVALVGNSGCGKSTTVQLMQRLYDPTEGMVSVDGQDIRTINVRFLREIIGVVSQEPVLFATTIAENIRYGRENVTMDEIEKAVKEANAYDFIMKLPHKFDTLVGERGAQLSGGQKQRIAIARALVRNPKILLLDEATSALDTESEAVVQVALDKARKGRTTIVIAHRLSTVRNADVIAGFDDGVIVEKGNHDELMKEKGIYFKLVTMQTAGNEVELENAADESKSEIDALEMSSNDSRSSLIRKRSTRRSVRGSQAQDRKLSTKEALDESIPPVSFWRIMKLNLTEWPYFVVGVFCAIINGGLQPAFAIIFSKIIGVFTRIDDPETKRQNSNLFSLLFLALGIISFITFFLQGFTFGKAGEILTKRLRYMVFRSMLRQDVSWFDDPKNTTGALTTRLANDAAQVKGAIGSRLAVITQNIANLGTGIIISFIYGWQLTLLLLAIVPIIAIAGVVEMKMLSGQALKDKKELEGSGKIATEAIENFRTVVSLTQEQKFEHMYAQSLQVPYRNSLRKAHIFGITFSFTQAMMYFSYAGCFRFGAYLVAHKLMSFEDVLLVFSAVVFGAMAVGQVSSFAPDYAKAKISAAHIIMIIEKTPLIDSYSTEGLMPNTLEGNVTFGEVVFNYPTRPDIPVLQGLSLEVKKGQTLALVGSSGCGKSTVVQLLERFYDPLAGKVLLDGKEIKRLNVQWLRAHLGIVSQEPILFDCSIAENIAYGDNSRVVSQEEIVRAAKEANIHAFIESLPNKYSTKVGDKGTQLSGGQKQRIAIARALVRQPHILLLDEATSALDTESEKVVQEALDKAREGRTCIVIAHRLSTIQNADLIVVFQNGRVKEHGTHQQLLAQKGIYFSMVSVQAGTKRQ
T2 sequence (P33527 whole entry): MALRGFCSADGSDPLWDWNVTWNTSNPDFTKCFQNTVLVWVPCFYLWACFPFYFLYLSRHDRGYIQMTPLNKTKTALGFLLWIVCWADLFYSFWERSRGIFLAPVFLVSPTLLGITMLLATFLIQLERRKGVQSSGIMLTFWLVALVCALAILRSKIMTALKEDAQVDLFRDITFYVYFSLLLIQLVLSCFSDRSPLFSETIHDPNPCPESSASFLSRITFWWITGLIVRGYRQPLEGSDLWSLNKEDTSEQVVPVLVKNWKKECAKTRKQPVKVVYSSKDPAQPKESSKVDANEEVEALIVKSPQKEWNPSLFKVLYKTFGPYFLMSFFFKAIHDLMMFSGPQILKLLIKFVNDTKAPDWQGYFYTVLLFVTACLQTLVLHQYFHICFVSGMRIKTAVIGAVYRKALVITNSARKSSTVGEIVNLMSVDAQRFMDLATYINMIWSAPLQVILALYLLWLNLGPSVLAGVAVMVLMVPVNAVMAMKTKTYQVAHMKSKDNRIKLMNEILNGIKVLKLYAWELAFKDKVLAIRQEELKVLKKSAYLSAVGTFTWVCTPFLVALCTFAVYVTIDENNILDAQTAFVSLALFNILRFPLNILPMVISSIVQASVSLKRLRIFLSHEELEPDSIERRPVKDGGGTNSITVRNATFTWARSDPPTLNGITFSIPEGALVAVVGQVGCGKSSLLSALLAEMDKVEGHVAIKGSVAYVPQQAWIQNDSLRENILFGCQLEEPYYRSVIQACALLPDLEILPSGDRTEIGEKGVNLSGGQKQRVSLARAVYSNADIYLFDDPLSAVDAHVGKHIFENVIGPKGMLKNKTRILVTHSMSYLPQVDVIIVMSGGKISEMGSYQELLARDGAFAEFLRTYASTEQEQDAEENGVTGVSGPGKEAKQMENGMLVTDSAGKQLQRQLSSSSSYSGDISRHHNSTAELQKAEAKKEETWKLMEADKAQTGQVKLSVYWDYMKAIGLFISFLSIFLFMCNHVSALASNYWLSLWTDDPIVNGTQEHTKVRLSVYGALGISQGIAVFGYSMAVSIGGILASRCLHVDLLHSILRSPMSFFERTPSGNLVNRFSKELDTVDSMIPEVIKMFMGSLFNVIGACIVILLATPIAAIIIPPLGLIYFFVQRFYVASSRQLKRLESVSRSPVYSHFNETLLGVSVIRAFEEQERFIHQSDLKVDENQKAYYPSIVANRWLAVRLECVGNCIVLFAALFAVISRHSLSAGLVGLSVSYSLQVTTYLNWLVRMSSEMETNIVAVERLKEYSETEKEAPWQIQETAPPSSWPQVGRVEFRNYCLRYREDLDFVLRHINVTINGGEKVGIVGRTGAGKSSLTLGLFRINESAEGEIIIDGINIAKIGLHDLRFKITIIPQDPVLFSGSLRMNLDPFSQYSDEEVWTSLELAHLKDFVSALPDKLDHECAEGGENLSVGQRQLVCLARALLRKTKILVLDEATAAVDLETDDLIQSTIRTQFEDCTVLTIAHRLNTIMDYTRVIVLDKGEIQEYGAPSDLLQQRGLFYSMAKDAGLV

SMILES: COc1cccc2c1C(=O)c1c(O)c3c(c(O)c1C2=O)C[C@@](O)(C(=O)CO)C[C@@H]3O[C@H]1C[C@H](N)[C@H](O)[C@H](C)O1 [DOX, doxorubicin]
RF, LCC6MDR + 1 μM FM04 (P-gp [1]): 25.2 | RF, LCC6MDR + DMSO (P-gp [1]): 1.0 | IC50 (MRP1): 0.616 ± 0.0542 µM | IC50 (LCC6 cells; [7]): 0.027 ± 0.0046 µM | RF, LCC6 + DMSO (LCC6 cells): 38.6

SMILES: COc1cccc2c1C(=O)c1c(O)c3c(c(O)c1C2=O)C[C@@](O)(C(C)=O)C[C@@H]3O[C@H]1C[C@H](N)[C@H](O)[C@H](C)O1 [Daunorubicin, daunorubicin]
RF, LCC6MDR + 1 μM FM04 (P-gp [1]): 6.3 | RF, LCC6MDR + DMSO (P-gp [1]): 1.0 | IC50 (LCC6 cells; LCC-6, read-out: IC50 of anticancer drug, LCC6 + DMSO): 0.0221 ± 0.0022 µM | RF, LCC6 + DMSO (LCC6 cells): 60.5

SMILES: O=C1c2c(O)ccc(O)c2C(=O)c2c(NCCNCCO)ccc(NCCNCCO)c21 [Mitoxantrone, mitoxantrone]
RF, LCC6MDR + 1 μM FM04 (P-gp [1]): 17.3 | RF, LCC6MDR + DMSO (P-gp [1]): 1.0 | IC50 (LCC6 cells; [7]): 0.0374 ± 0.0117 µM | RF, LCC6 + DMSO (LCC6 cells): 28.1

SMILES: CC[C@@]1(O)C(=O)OCc2c1cc1n(c2=O)Cc2cc3c(CN(C)C)c(O)ccc3nc2-1 [Topotecan, topotecan]
IC50 (BCRP): 0.225 ± 0.032 µM

SMILES: CC[C@]1(O)C[C@@H]2CN(CCc3c([nH]c4ccccc34)[C@@](C(=O)OC)(c3cc4c(cc3OC)N(C)[C@H]3[C@@](O)(C(=O)OC)[C@H](OC(C)=O)[C@]5(CC)C=CCN6CC[C@]43[C@@H]65)C2)C1 [Vinblastine, vinblastine]
RF, LCC6MDR + 1 μM FM04 (P-gp [1]): 61.3 | RF, LCC6MDR + DMSO (P-gp [1]): 1.0 | IC50 (LCC6 cells; [7]): 0.00038 ± 0.00014 µM | RF, LCC6 + DMSO (LCC6 cells): 24.2 | RF, LCC6 + 1 μM FM04 (LCC6 cells): 10.7

SMILES: CC[C@]1(O)C[C@H]2CN(CCc3c([nH]c4ccccc34)[C@@](C(=O)OC)(c3cc4c(cc3OC)N(C=O)[C@H]3[C@@](O)(C(=O)OC)[C@H](OC(C)=O)[C@]5(CC)C=CCN6CC[C@]43[C@@H]65)C2)C1 [Vincristine, vincristine]
RF, LCC6MDR + 1 μM FM04 (P-gp [1]): 68.0 | RF, LCC6MDR + DMSO (P-gp [1]): 1.0 | IC50 (LCC6 cells; [7]): 0.00071 ± 0.00032 µM | RF, LCC6 + DMSO (LCC6 cells): 39.3 | RF, LCC6 + 1 μM FM04 (LCC6 cells): 21.5

SMILES: O=c1cc(-c2ccc(O)cc2)oc2cc(O)cc(O)c12 [apigenin]
RF (relative-fold) (P-gp [1]): 1.0 | EC50 (P-gp [5]): > 10 µM

SMILES: O=c1cc(-c2ccc(OCCOCCOCCOCCOc3ccc(-c4cc(=O)c5ccccc5o4)cc3)cc2)oc2ccccc12 [compound 61]
RF (relative-fold) (P-gp [1]): > 28

SMILES: CC(C)c1nc(CN(C)C(=O)N[C@H](C(=O)N[C@@H](Cc2ccccc2)C[C@H](O)[C@H](Cc2ccccc2)NC(=O)OCc2cncs2)C(C)C)cs1 [ritonavir]
fold enhancement of the AUC of oral PTX vs a single oral dose of PTX [6]: 2.5 fold

Now from value to compound, other results behind:

AUC(0-t) [2]: 78.9 ng·h/mL | Cmax [2]: 18 ng/mL | Tmax [2]: 50 min | Normalized AUC (systemic exposure relative to FD18) ([2]; listed as M1): 12%
SMILES: O=c1cc(-c2ccc(OCCOCCNCCOCCOc3ccc(-c4cc(=O)c5ccccc5o4)cc3)cc2)oc2ccccc12 [14a, 1,13-Bis[4′-(4H-chromen-4-on-2-yl)phenyl]-1,4,10,13-tetraoxa-7-azatridecane]
fold lower activity than FD18 in reversing PTX resistance (P-gp [1]): 2.1 fold

AUC(0-t) [2]: 682 ng·h/mL | EC50 (P-gp [3]): 0.116 µM
SMILES: O=c1cc(-c2ccc(OCCOCCN(CCOCCOc3ccc(-c4cc(=O)c5ccccc5o4)cc3)Cc3ccccc3)cc2)oc2ccccc12 [FD18]
RF (relative-fold) (P-gp [1]): > 68 | EC50 (P-gp [1]; EC50 for P-gp modulation, range over PTX reversal and DOX accumulation in LCC6MDR): 0.116 to 0.148 µM | IC50 (L929): 85 ± 5 µM | Transport substrate of P-gp (P-gp [4]): substrate of P-gp

AUC(0-t) [2]: 49.1 ng·h/mL | Cmax [2]: 21 ng/mL | Tmax [2]: 50 min | Normalized AUC (systemic exposure relative to FD18) ([2]; listed as M3): 7%
SMILES: O=c1cc(-c2ccc(OCCOCCO)cc2)oc2ccccc12 [FM327, 2-(4-(2-(2-hydroxyethoxy)ethoxy)phenyl)-4H-chromen-4-one]
EC50 (P-gp [1]; EC50 needed for reversing MDR in LCC6MDR cells: PTX, LCC6MDR, PTX resistance): > 1 µM
